The values below come from patent publication US12390483B2, “Compounds and methods for treating neurological and cardiovascular conditions” (Astrocyte Pharmaceuticals, Inc., priority 2016, dated 2025).

Read-outs that look alike come from different tables or passages of the source.

Data set [1] can be described thus: In vitro stability and metabolite scouting of MRS2365 in human whole blood. The data set is classed as in vitro ADME. As to conditions: 100 μM in human whole blood, lithium heparin as anti-coagulant. How it is done:
Whole blood was obtained from male CD-1 mice and human volunteers at Seventh Wave Laboratories (Maryland Heights, MO). Plasma and blood samples were prepared using either EDTA (1 mM) or lithium heparin as anticoagulants.
Blood sample aliquots were obtained at 0, 1, 2.5, 7.5, 10 and 30 minutes and placed in microtainer tubes. For metabolite scouting analyses, MRS2365 was incubated in heparinized human whole blood at a concentration of 100 μM for 10 or 30 minutes (FIG. 10). In all studies, plasma was immediately prepared by centrifugation at 4° C., placed in microtainer tubes, frozen on dry ice and stored at −80° C. until analysis. […]
Plasma and blood samples were also qualitatively analyzed for MRS2365 metabolites utilizing a LC-MS/MS-based “metabolite scouting” protocol. […] Blood and plasma samples were analyzed by both positive- and negative-ion LC/MS-MS for parent compound and metabolites as it was anticipated that the phosphorylated compounds would preferentially generate negative ions while the riboside MRS4322 would preferentially generate positive ions. In positive-ion mode, extracted ion chromatograms monitored masses in the range of 323.7-324.7 and 403.7-404.7 to scout for MRS4322 and MRS2347, respectively. Any ion peaks in these ranges were further analyzed to generate product ion spectra for these ion chromatogram peaks. […]

Data set [2] is described as follows: Pharmacokinetics of MRS4322 following intravenous administration to neonatal pigs. Type of data set: in vivo. The following applies: 0.2 mg/kg IV; for C0: 0.2 mg/kg, neonatal pig plasma, individual animals. How it is done: Animals. Four-week old female neonatal pigs weighing approximately 7.5 Kg were used for this study, supplied by the Department of Bioengineering, University of Pennsylvania (Philadelphia, PA). Animals were equipped with brain microdialysis probes to obtain brain extracellular fluid samples for drug concentration determinations during the study. All studies were conducted under approved University of Pennsylvania IACUC protocols.
Drug Administration: MRS4322 was solubilized in DMSO and then diluted in saline to prepare dosing solution. A 10 mL volume of dosing solution was administered by intravenous bolus administration to each neonatal pig (n=3).
Tissue Sampling: Blood samples were obtained at 0.25, 0.5, 1, 2, 4 and 6 hours post-dose. Brain extracellular fluid samples were obtained from implanted microdialysis probes at 1, 4 and 6 hours post-dose. Whole blood (1 mL) was obtained at each timepoint and placed in vacutainer tubes containing heparin and immediately centrifuged for preparation of plasma; plasma was stored at −80° C. Brain extracellular and cerebrospinal fluid samples were stored at −80° C. At the time of euthanasia (6 hours post-dose), cerebrospinal fluid samples were obtained and frozen, while brain samples from the cortex and hippocampus were obtained by decapitation, rinsed in ice-cold phosphate-buffered saline and weighed. Brain samples were then immediately flash-frozen in liquid nitrogen and stored at −80° C.
The following table outlines the LC and MS/MS conditions employed:
The calibration ranges for all of the MRS4322 matrice's standard curves were 0.1-1000 ng/mL.
For bioanalysis of brain concentrations of MRS4322, brain samples were homogenized in ice-cold phosphate-buffered saline in a 4× dilution. Aliquots of the resulting diluted brain homogenate were treated with acetonitrile and analyzed by LC-MS/MS.

A further data set deals with T1, A3 receptor (Mus musculus, UniProt Q61618).
T1 sequence (Q61618 1-319): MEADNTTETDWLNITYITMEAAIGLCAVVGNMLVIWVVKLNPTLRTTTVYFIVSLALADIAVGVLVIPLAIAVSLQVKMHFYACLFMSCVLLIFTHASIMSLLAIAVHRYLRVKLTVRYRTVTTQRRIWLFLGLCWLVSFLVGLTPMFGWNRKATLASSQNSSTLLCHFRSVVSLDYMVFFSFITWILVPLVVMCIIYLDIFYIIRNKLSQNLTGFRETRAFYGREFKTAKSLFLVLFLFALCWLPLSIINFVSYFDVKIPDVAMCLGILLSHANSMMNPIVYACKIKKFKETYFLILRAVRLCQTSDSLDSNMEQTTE
The data set can be described thus: Affinity at the A3 receptor in the mouse as stated in the discussion. Type of data set: binding.

For the compound `CSc1nc(N)c2ncn([C@H]3[C@H](O)[C@H](O)[C@]4(COP(=O)(O)OP(=O)(O)O)C[C@H]34)c2n1` [MRS2365], in data set [1], the “metabolites observed (M2 = MRS2347, M1 = MRS4322)” value is on record as “Two metabolites”.
On to `CSc1nc(N)c2ncn([C@H]3[C@H](O)[C@H](O)[C@]4(CO)C[C@H]34)c2n1` [MRS4322], for which the C0 in data set [2] (female, pig, plasma, iv, read-out: C0) stood at 266 ng/mL; in data set [2] it was 269 ng/mL. Besides, the “Plasma Concentration by Subject” value in data set [2] (neonatal pigs, 0 h, individual subjects, BLQ = below 0.0975 ng/mL) is listed as “BLQ”. The “Plasma Concentration Mean” value in data set [2] (neonatal pigs, 0 h, BLQ = below 0.0975 ng/mL) was “BLQ”. Moreover, the “difference in affinity between MRS4322 and Cl-IB-MECA” value at A3 receptor is recorded as “approximately 25,000 fold”.
